Measured values published in patent publication US8598130B2, “Insecticidal combinations” (priority 2008, dated 2013).

Tested on: mites
Test: Field trial of mite control on field beans variety Paloma, foliar spray
Format: in vivo
Conditions: for Observed, % control of mites 6DAA3: 6 days after application 3, rate g/ha: abamectin 6.7, cyflumetofen 150, combination 6.7 & 150, percentage compared to non-treated control; for Observed, % control of mites 14DAA3: fourteen days after application 3, rate g/ha: abamectin 6.7, cyflumetofen 150, combination 6.7 & 150, percentage compared to non-treated control; for Observed, % control of mites 6DAA1: six days after application 1, rate g/ha: abamectin 6.7, cyflumetofen 150, combination 6.7 & 150, percentage compared to non-treated control; for Observed, % control of mites 6DAA2: six days after application 2, rate g/ha: abamectin 6.7, cyflumetofen 150, combination 6.7 & 150, percentage compared to non-treated control
Description: The action to be expected E for a given active ingredient combination obeys the so-called COLBY formula and can be calculated as follows (COLBY, S. R. “Calculating synergistic and antagonistic responses of herbicide combination”. Weeds, Vol. 15, pages 20-22; 1967): • ppm=milligrams of active ingredient (=a.i.) per liter of spray mixture • X=% action by active ingredient A) using p ppm of active ingredient • Y=% action by active ingredient B) using q ppm of active ingredient.
According to COLBY, the expected (additive) action of active ingredients A)+B) using p+q ppm of active ingredient is
If the action actually observed (O is greater than the expected action (E), then the action of the combination is super-additive, i.e. there is a synergistic effect.
Trials are conducted on field beans variety Paloma to determine the effects of the present combination.
The trials are carried out on a plot is 1 m^2, with three replicates for each trial and spray volume ranges from 1500-1600 l/ha.
The first application of the pesticide formulation (whether solo or combination) is at pest threshold as foliar spray (at 35 days after planting). Thereafter the second and third foliar applications are at 42 and 49 days after planting.
The assessment of the mite control is carried out on the basis of number of mites on five leaves for each plot at the times indicated in the table (i.e., six days after application 1 (6DAA1), six days after application 2 (6DAA2), 6 days after application 3 (6DAA3), and fourteen days after application 3 (14DAA3)). The values are given as a percentage compared to a non-treated control.
The Table below also provides the expected % control for the combination based on the Colby formula.

Molecule	Observed, % control of mites 6DAA3	Observed, % control of mites 14DAA3	Observed, % control of mites 6DAA1	Observed, % control of mites 6DAA2
COCCOC(=O)C(C#N)(C(=O)c1ccccc1C(F)(F)F)c1ccc(C(C)(C)C)cc1 (centres unmarked) [cyflumetofen]	26%	32%	79%	64%
abamectin	59%	66%	92%	32%
